Patent publication US20100143972A1, “Method of Making Cyclic Polypeptides with Inteins” (priority 2006, published 2010)
Entries after “also recorded” stand apart in the source; their conditions may differ. No end group written: not given here.

Columns and labels:
[1] = tested on: Strain AH429 (Agr-I reporter); assay: AIP inhibition assay, Agr-I reporter (RNAIII promoter driving GFP); type: cell-based, S. aureus; conditions: sample diluted 20-fold into AH429 culture; GFP compared to TSB control
Protocol: (§1) AIP inhibition assays. For monitoring inhibition of the Agr system, an overnight culture of the appropriate reporter strain was inoculated into TSB with chloramphenicol and grown to an optical density of 0.05 (0.25 for AH431) at 600 nm. In triplicate, 475 μl of reporter culture was aliquoted into test tubes (13×100 mm) and 25 μl of spent media or intein-generated AIP was added to each tube. As controls, separate tubes were prepared with the addition of either 25 μl of TSB or chitin elution buffer. The tubes were shaken at 250 rpm at 37° C. and assayed at the following times unless otherwise indicated: AH429, 12 hrs; AH430, 3 hrs; AH431, 4 hrs. Both cell density (optical density, 595 nm) and GFP fluorescence (excitation at 485 nm, emission at 535 nm) was measured in a Tecan GENios microtiter plate reader (Research Triangle Park, N.C.) by removing 100 μl from each tube and assaying in a microtiter plate (Corning 3606 plates). Fluorescence is reported as an average of the three samples. Control AIP samples were prepared from the appropriate S. aureus producing strains. Each strain was grown in TSB until an optical density at 600 nm of ˜2.0-2.5, the cells were pelleted, and the supernatant was filtered through a 0.2 micro syringe filter. The filtered supernatants were stored at 4° C. and used within 48 hrs.
(§2) Agr reporter strains. […]

[2] = tested on: S. aureus Agr-I (AH462) reporter strain; assay: AIP activation assay, Agr-I reporter; type: cell-based; conditions: 50 nM iAIP, TSB with 0.2% glucose, AH462, GFP
Protocol: (§3) AIP activation assays. Overnight cultures of S. aureus reporter strains were grown in TSB and sub-cultured 1:50 into TSB+0.2% glucose supplemented with indicated AIP (final volume […] concentration 50 nM). Cultures were grown in test tubes (13×100 mm) at 37° C. shaking at 250 rpm. Cell density and fluorescence was monitored using a Tecan GENios microtiter plate reader at 4, 6, 8, and 10 hours after inoculation.
(§4) In published reports, the addition of AIP samples results in a significant increase in the RNAIII levels (Ji et al., 1997). The inventors reasoned that the S. aureus media conditions are limiting the Agr response, allowing detection of AIP activation. Glucose is a common media component, and growth on glucose is known to repress RNAIII transcription (Regassa et al., 1992). When the reporter strains were grown in TSB with 0.2% glucose, the inventors observed an approximately 70% drop in GFP expression (data not shown). The addition of AIP to the glucose treated strains restores the maximal levels of RNAIII, creating a simple test for AIP activation.

[3] = tested on: Strain AH431 (Agr-III reporter); assay: AIP inhibition assay, Agr-III reporter (RNAIII promoter driving GFP); type: cell-based, S. aureus; conditions: sample diluted 20-fold into AH431 culture
Protocol: as §1, §2

[4] = tested on: AH430 (Agr-II reporter); type: cell-based, S. aureus
Protocol: as §1
The intein fusions were kept on resin in the presence of buffer with TCEP, a non-thiol reducing agent, added to maintain DnaB activity and keep the AIP cysteine reduced. Following incubation, the resin buffer was eluted and tested for biological activity. The bioassay is based on the observation that there are three inhibition classes among S. aureus Agr systems (FIG. 1). An S. aureus Agr-II reporter strain, AH430, has a plasmid with the RNAIII transcript promoter driving GFP expression.
Agr reporter strains. To test the iAIPs, reporter strains had to be developed for each of the Agr-I, Agr-II, and Agr-III systems. […]

[5] = tested on: S. aureus Agr-II (AH430) reporter strain; assay: AIP activation assay, Agr-II reporter; type: cell-based; conditions: 50 nM iAIP, TSB with 0.2% glucose, AH430, GFP
Protocol: as §3, §4

Substance | inhibition of quorum-sensing (GFP fluorescence) in Agr-I reporter strain [1] | -fold activation over the TSB control, Agr-I reporter [2] | inhibition of quorum-sensing (GFP fluorescence) in Agr-III reporter strain [3] | inhibition of quorum-sensing (GFP fluorescence) in Agr-II reporter strain ([4]; sample diluted 20-fold into AH430 culture, untreated sample) | Agr-II inhibition after hydroxylamine treatment of the sample ([4]; sample treated with hydroxylamine, opening the thiolactone ring, AH430) | Agr-II inhibition after base treatment of the sample ([4]; sample treated with sodium hydroxide base to open the thiolactone ring, neutralized with acid, AH430) | -fold activation over the TSB control, Agr-II reporter [5]
iAIP-I: intein-generated S. aureus AIP-I thiolactone peptide with an additional N-terminal methionine (MYSTCDFIM) (not fully specified (bridges); also: thiolactone, places not given here) | did not inhibit quorum-sensing | 3.0 -fold | inhibited | inhibited the quorum-sensing response in strain AH430 in a dose-dependent manner; also recorded: did inhibit activity | neither sample inhibited the Agr response | neither sample inhibited the Agr response | –
iAIP-II: intein-generated S. aureus AIP-II thiolactone peptide (GVNACSSLF), N-terminal methionine completely removed (not fully specified (bridges); also: thiolactone, places not given here) | inhibited quorum-sensing | – | inhibited quorum-sensing | – | – | – | 3.8 -fold
